Values quoted from earlier work in US9827281B2, “Medication dispensing system” (priority 2015, dated 2017).

Experiments:
[1] = target: CB1 receptor (Homo sapiens, UniProt P21554)
[2] = target: T1, androgen receptor in the prostate gland (Homo sapiens, UniProt P10275)
T1 construct: host or cells: prostate gland
T1 sequence (P10275 1-920): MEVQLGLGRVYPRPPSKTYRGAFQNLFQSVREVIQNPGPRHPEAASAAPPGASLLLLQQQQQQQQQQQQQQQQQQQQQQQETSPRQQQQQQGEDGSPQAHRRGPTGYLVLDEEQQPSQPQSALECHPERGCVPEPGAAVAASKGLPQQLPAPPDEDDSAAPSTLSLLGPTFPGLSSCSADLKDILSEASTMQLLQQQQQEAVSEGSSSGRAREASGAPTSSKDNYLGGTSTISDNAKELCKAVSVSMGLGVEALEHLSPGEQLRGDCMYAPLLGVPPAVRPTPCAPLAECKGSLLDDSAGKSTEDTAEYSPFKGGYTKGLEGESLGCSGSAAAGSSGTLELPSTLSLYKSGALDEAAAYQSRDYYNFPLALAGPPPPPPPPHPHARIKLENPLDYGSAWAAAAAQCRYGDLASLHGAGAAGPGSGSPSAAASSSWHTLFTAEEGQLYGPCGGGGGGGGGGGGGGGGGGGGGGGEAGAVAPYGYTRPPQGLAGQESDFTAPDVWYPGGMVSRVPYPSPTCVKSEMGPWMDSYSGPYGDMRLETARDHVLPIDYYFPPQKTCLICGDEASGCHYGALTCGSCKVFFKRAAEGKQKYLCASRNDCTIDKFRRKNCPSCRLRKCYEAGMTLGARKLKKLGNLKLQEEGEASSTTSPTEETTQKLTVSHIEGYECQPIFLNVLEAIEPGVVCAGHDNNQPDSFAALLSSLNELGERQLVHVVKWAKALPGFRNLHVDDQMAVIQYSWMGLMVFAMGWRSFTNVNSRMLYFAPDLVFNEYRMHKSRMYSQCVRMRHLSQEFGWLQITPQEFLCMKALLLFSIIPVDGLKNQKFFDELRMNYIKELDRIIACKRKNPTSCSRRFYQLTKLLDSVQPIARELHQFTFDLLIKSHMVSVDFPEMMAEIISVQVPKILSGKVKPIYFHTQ

[3] = tested on: prostate cell line, PC-3
[4] = not given; remark: listed apart in the source
[5] = tested on: estrogen receptor-positive and estrogen receptor-negative breast cancer cell lines; conditions: inducing apoptosis in a concentration-dependent manner
[6] = tested on: nontumorigenic mammary cells
[7] = tested on: cannabinoid receptors

Sequence of CB1 receptor (P21554 whole entry): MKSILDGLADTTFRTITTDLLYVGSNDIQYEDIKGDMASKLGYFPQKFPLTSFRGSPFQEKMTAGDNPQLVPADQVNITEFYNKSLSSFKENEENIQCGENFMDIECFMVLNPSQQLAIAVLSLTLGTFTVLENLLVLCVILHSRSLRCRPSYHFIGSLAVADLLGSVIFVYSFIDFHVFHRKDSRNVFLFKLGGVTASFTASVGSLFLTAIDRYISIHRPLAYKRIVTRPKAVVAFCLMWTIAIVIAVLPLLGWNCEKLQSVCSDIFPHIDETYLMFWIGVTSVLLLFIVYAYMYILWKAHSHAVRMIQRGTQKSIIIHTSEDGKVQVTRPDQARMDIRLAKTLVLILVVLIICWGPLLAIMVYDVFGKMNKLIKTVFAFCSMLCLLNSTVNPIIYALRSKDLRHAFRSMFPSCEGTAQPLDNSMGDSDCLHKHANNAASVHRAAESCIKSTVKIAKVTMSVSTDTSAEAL

For `CCCc1cc(O)c2c(c1)OC(C)(C)[C@@H]1CCC(C)=C[C@@H]21` [THCV, Tetrahydrocannabivarin], the “CB1 receptor mode of action” value [1] is listed as “antagonist”.
For vitamin E, the “reduction in breast cancer incidence” value (pre-menopausal women with a family history of breast cancer, highest quantity of vitamin E consumed) is listed as 43% and the “risk reduction of breast cancer” value (women without a family history of breast cancer) is listed as 16%.
For `CCCCCc1cc(O)c2c(c1)OC(C)(C)[C@@H]1CCC(C)=C[C@@H]21` [THC, Tetrahydrocannabinol], the “specific binding of dihydroxytestosterone to the androgen receptor” value [2] is given as “inhibits specific binding”, the apoptosis [3] is given as “causes apoptosis” and the pain sensitivity ([4]; cold-pressor test after administration) is given as “decreased pain sensitivity”. For the same molecule, the “time after administration at which pain reduction effects were felt (average)” value ([4]; cold-pressor test, dronabinol oral capsules 10 mg or 20 mg) was 180 min and the duration of effects ([4]; compared with smoked marijuana) was “lasted longer than smoked marijuana”.
For `C=C(C)[C@@H]1CCC(C)=C[C@H]1c1c(O)cc(CCCCC)cc1O` [CBD, Cannabidiol], the “survival of breast cancer cell lines” value [5] is listed as “inhibited the survival”, the “effect on nontumorigenic mammary cells” value [6] is listed as “little effect” and the “affinity to cannabinoid receptors” value [7] is listed as “low affinity”.
